Experiment [1] concerns the target T1, NSBP-1 (D2096.8; nematode sterol-binding protein 1) (Caenorhabditis elegans, UniProt Q19007).
T1 sequence (Q19007 1-316): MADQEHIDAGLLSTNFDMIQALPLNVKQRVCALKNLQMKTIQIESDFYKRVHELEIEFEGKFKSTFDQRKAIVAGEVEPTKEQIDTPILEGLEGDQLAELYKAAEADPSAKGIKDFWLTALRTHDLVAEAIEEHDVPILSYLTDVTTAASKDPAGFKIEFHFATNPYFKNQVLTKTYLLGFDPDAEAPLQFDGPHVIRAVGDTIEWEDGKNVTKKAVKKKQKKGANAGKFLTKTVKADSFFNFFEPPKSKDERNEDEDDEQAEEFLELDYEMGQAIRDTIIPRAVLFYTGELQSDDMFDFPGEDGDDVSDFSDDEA
Description: competition with […] [3H]cholesterol on GST fusion protein.

The target in experiment [2] is T1, NSBP-1 (D2096.8; nematode sterol-binding protein 1).

In the case of `C[C@H](CCCC(C)(C)O)[C@H]1CC[C@H]2[C@@H]3CC=C4C[C@@H](O)CC[C@]4(C)[C@H]3CC[C@]12C` [25-hydroxycholesterol], the IC50 in experiment [1] was around 630 nM.
`CC(C)CCC[C@@H](C)[C@H]1CC[C@H]2[C@@H]3CC=C4C[C@@H](O)CC[C@]4(C)[C@H]3CC[C@]12C` [cholesterol] had a concentration for half-maximal inhibition (IC50) in experiment [1] of 40 ± 5.6 nM. The compound further came in with a Kd in experiment [2] of 87.5 ± 27.7 nM.

Values taken from article PMC3759162 (Cellular and molecular life sciences : CMLS, 2012).
